Results as given in patent US9321760B2 (Merck Patent GmbH, priority 2011, dated 2016).

Target: P70S6K (T412E mutant) (Homo sapiens (Human), UniProt P23443, T412E)
Experiment: P70S6K enzyme assay
Format: biochemical
Details: 3 nM P70S6K T412E mutant, 24 μM ATP, 1 μM FITC-AHA-AKRRRLSSLRA-OH substrate peptide, 90 min at 25° C.
Summary of the method: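 P70S6K T412E mutant (3 nM) with 24 μM ATP and 1 μM FITC-labelled S6-derived peptide in Hepes pH 7.5, MgCl2, DTT, Brij buffer; 90 min at 25° C, stopped with EDTA. Phosphorylated product and substrate peptides separated by microfluidic mobility shift; IC50 values derived.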

Chain of P70S6K (T412E mutant) (P23443 whole entry T412E): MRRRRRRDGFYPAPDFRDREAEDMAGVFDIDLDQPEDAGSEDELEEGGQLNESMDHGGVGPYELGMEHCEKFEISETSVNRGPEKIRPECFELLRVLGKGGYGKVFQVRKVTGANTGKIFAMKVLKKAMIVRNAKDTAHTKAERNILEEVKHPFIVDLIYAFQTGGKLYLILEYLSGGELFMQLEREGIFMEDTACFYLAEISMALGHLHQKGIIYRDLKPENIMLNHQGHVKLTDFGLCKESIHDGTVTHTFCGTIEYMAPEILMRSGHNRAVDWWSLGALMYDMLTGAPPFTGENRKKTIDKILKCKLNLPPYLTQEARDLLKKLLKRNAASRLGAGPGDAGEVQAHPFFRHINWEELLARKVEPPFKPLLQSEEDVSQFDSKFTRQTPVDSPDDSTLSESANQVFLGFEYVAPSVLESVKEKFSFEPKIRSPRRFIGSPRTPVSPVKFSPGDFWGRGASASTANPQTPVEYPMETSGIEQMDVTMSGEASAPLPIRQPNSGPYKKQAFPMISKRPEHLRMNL

Row | IC50 [nM] | Compound
1 | 22000 | CCOC(=O)Cn1cc(-c2c(N)ncnc2N2CCN(C(CN3CCC3)c3ccc4c(c3)CCCC4)CC2)cn1 (centres unmarked) [Example 119, [4-(4-Amino-6-{4-[2-azetidin-1-yl-1-(5,6,7,8-tetrahydro-naphthalen-2-yl)-ethyl]-piperazin-1-yl}-pyrimidin-5-yl)-pyrazol-1-yl]-acetic acid ethyl ester]
2 | > 1000 | Cn1ccnc1C(c1ccccc1)N1CCN(c2ncnc(N)c2Br)CC1 (centres unmarked) [Example 29, 5-Bromo-6-{4-[(1-methyl-1H-imidazol-2-yl)-phenyl-methyl]-piperazin-1-yl}-pyrimidin-4-ylamine]
3 | 2.8 | NCC(c1ccc(C(F)(F)F)cc1)N1CCN(c2ncnc(N)c2-c2cn[nH]c2)CC1 (centres unmarked) [Example 7, 6-{4-[2-Amino-1-(4-trifluoromethyl-phenyl)-ethyl]-piperazin-1-yl}-5-(1H-pyrazol-4-yl)-pyrimidin-4-ylamine]
4 | 5.8 | NCC(c1ccc(C(F)(F)F)cc1)N1CCN(c2ncnc(N)c2-c2cc[nH]c2)CC1 (centres unmarked) [Example 37, 6-(4-(2-amino-1-(4-(trifluoromethyl)phenyl)ethyl)piperazin-1-yl)-5-(1H-pyrrol-3-yl)pyrimidin-4-amine]
5 | > 1000 | Nc1ncnc(N2CCN(C(CN3CCCC3)c3ccc(F)cc3)CC2)c1Cl (centres unmarked) [Example 81, 5-Chloro-6{4-[1-(4-fluorophenyl)-2-pyrrolidin-1-yl-ethyl]-piperazin-1-yl}-pyrimidin-4-ylamine]
6 | 860 | Cc1ccc([C@H](CCO)NC(=O)C2(N)CCN(c3ncnc(N)c3Cl)CC2)cc1 [Example 237, 4-Amino-1-(6-amino-5-chloro-pyrimidin-4-yl)-piperidine-4-carboxylic acid ((S)-3-hydroxy-1-p-tolyl-propyl)-amide]
7 | 2.2 | NCC(c1ccc(C(F)(F)F)cc1)N1CCN(c2ncnc(N)c2-c2ccc(F)cc2)CC1 (centres unmarked) [Example 2, 6-{4-[2-Amino-1-(4-trifluoromethyl-phenyl)-ethyl]-piperazin-1-yl}-5-(4-fluoro-phenyl)-pyrimidin-4-ylamine]
8 | 3100 | Nc1ncnc(N2CCN(C(CN3CCC3)c3ccc(F)cc3Cl)CC2)c1-c1cn[nH]c1 (centres unmarked) [Example 137, 6-{4-[2-Azetidin-1-yl-1-(2-chloro-4-fluoro-phenyl)-ethyl]-piperazin-1-yl}-5-(1H-pyrazol-4-yl)-pyrimidin-4-ylamine]
9 | 210 | COC[C@H](NC(=O)C1(N)CCN(c2ncnc(N)c2C#N)CC1)c1ccc(Cl)cc1 [Example 241, 4-Amino-1-(6-amino-5-cyano-pyrimidin-4-yl)-piperidine-4-carboxylic acid [(R)-1-(4-chloro-phenyl)-2-methoxy-ethyl]-amide]
10 | 4.5 | NC[C@@H](c1ccc(C(F)(F)F)cc1)C1CCN(c2ncnc(N)c2-c2ccc(F)cc2)CC1 [Example 54, 6-{4-[(R)-2-Amino-1-(4-trifluoromethyl-phenyl)-ethyl]-piperidin-1-yl}-5-(4-fluoro-phenyl)-pyrimidin-4-ylamine]
11 | 120 | Nc1ncnc(N2CCC(N)(CNC(=O)c3ccc(F)cc3F)C2)c1-c1ccc(Oc2ccccc2)cc1 (centres unmarked) [Example 200, N-{3-Amino-1-[6-amino-5-(4-phenoxy-phenyl)-pyrimidin-4-yl]-pyrrolidin-3-ylmethyl}-2,4-difluoro-benzamide]
12 | 6.1 | NCC(c1ccc(Cl)c(F)c1)N1CCN(c2ncnc(N)c2-c2cn[nH]c2)CC1 (centres unmarked) [Example 187, 6-(4-(2-amino-1-(4-chloro-3-fluorophenyl)ethyl)piperazin-1-yl)-5-(1H-pyrazol-4-yl)pyrimidin-4-amine]
13 | 1500 | Nc1ncnc(N2CCN(C(CN3CCC3)c3ccc(Cl)c(Cl)c3)CC2)c1-c1cn[nH]c1 (centres unmarked) [Example 131, 6-{4-[2-Azetidin-1-yl-1-(3,4-dichloro-phenyl)-ethyl]-piperazin-1-yl}-5-(1H-pyrazol-4-yl)-pyrimidin-4-ylamine]
14 | 390 | N#Cc1c(N)ncnc1N1CCC(N)(C(=O)N[C@@H](CCO)c2ccc(F)cc2)CC1 [Example 243, 4-Amino-1-(6-amino-5-cyano-pyrimidin-4-yl)-piperidine-4-carboxylic acid [(S)-1-(4-fluoro-phenyl)-3-hydroxy-propyl]-amide]
